Laboratory results reported in patent US20060223877A1, “Methods of treatment utilizing certain melatonin derivatives” (priority 2005, published 2006).

Legend:
[1] = tested on: subjects fed a high-fat diet; details: daily administration, Pruet-Marcassus et al., 2003; cited from earlier work
middle-aged male rats = details: cited from earlier work
[2] = tested on: patients with a diagnosis of migraine with or without aura; details: daily treatment; Peres et al., 2004; cited from earlier work
[3] = tested on: patients with a diagnosis of fibromyalgia; details: cited from earlier work
male Sprague-Dawley rats = assay: open field test; type: in vivo; details: for rearing behavior compared to vehicle controls: FIG. 1; for immobility compared to controls: FIG. 2
Description: Subjects were male Sprague-Dawley rats weighing 250-300 g housed in a temperature- and humidity-controlled vivarium on a 12:12 hr light:dark cycle with food and water available ad libitum. Behavioral testing occurred 2 hrs after lights out. […] All treatments were administered to an animal once (no repeat drug administration) with 8 animals per treatment. The open filed testing procedure has been previously described (Herman et al., 2003). Briefly, the open field apparatus is a 36×36-inch white PLEXIGLAS® enclosure, divided into 36 squares of equal size. Animals are placed into the apparatus and allowed to explore the environment for 5 min. Sessions are videotaped and scored for behavior by an investigator blinded to the treatment condition. Behavior is scored for the two primary outcome measures: rearing and immobility, as well as grooming; and secondary measures of sedation: total mobility and quadrant crossing.

TBI rats = assay: traumatic brain injury, controlled cortical impact model; type: in vivo; details: 10 mg/kg intraperitoneally, two doses (15 minutes and 24 hours after TBI), Day 7 morphometry, P=0.01, FIG. 3
Source text: Subjects were male Sprague-Dawley rats weighing 250-300 g housed in a temperature- and humidity-controlled vivarium on a 12:12 hr light:dark cycle with food and water available ad libitum. Animals were subjected to TBI using controlled cortical impact model. (Sullivan et al. 2000a). Animals were anesthetized and their brain cortex exposed. Employing a pneumatically-controlled impactor rod with a 5 mm diameter beveled tip, one of the cortices was compressed at 3.5 m/sec to a predetermined depth of 1.5 mm, resulting in TBI. The other cortex was not injured and left intact. Following the experimental TBI protocol, the animals were randomly divided into two groups and were either treated with vehicle or 10 mg/kg of β-methyl-6-chloromelatonin intraperitoneally (two doses; first dose 15 minutes after TBI and the second 24 hours later). The animals were allowed to recover for 168 hours (seven days). On Day 7, quantitative morphometric image analysis was employed to assess cortical tissue damage. Quantitative morphometry is considered to be the “gold standard” for assessing neuroprotectant drug efficacy in TBI (Sullivan et al., 1999; Sullivan et al., 2000a; Sullivan et al., 2000b).

[4] = tested on: TNF-α stimulated EOC-20 cells; assay: nitrite and PGE2 in TNF-α stimulated EOC-20 microglial cells; type: cell-based; details: 20 ng/ml TNF-α-stimulated EOC-20 cells, dose-dependent manner
Source text: The compounds of the present invention are effective in treating neurodegenerative diseases, such as amyotrophic lateral sclerosis (ALS), Alzheimer's disease (AD), Huntington's disease (HD) and Parkinson's disease (PD).
The experiments consisted of treating TNF-α stimulated EOC-20 cells with increasing concentrations of β-methyl-6-chloromelatonin followed by measuring neuroinflammation-associated markers. Neuroinflammation activates microglia to produce proinflammatory cytokines, reactive oxygen species (ROS) and reactive nitrogen species (RNS) in ALS, AD, HD and PD-associated pathophysiology (Deckel, 2001; Cacquevel, 2004; McGeer and McGeer, 2004; Sargsyanet al., 2005). Increase in prostaglandin (PGE2), a potent inflammatory mediator, and nitrite, an indirect measure of RNS production, indicates inflammation-induced neurodegeneration in ALS, AD, HD and PD patients (Milstien et al., 1994; Tohgi et al., 1999; Deckel, 2001 ;Cacquevel, 2004).

IHI mice = assay: ischemia-hypoxia injury (IHI) model of cerebrovascular disease; type: in vivo; details: 10 and 100 mg/kg intraperitoneally 30 minutes before and 30 minutes after hypoxia, Day 3, dose-dependent, FIG. 6
Description: Subjects were 8-12 week old adult male C57B116 mice housed in a temperature- and humidity-controlled vivarium on a 12:12 hr light:dark cycle with food and water available ad libitum. The mice were subjected to ischemia-hypoxia injury (IHI). The injury was rendered by permanently occluding the right common carotid artery and delivering hypoxic gas (7.5% O2) for 30 minutes employing a gas mask under anesthesia. The animal's body temperature was maintained at 36.5-37.5° C. throughout the experiment. For drug efficacy studies, β-methyl-6-chloro-melatonin was administered intraperitoneally 30 minutes before and 30 minutes after hypoxia at doses of 0 (vehicle only), 10 and 100 mg/kg. On Day 3 after injury, quantitative morphometric image analysis was employed to assess infarction size in Nissl-stained brain sections isolated from the animals. β-methyl-6-chloromelatonin administration caused a 33-40% reduction in brain infarct size in IHI mice compared to vehicle-treated IHI mice (FIG. 6). The protection conferred by β-methyl-6-chloromelatonin was dose-dependent.

melatonin receptors = details: Mulchahey, et al., 2004; cited from earlier work
humans = details: 20 mg to 100 mg per day, Zemlan et al., 2005; cited from earlier work
[5] = 10 mg/kg i.p. 1 hr prior to open field testing
[6] = 100 mg/kg i.p. 1 hr prior to open field testing
[7] = 10 and 100 mg/kg i.p., P values>0.10

SMILES	body weight [1]	body weight (middle-aged male rats; daily treatment, middle-aged obesity, Rasmussen et al., 1999)	fat content (middle-aged male rats; middle-age obesity, as opposed to lean body mass)	headache frequency [2]	headache intensity [2]	core symptoms of fibromyalgia (severity of pain, tender point count, patient and physician ratings) ([3]; 20 patients treated for 30 days, Citera et al., 2000)	patient-reported improvement including lack of pain and fatigue ([3]; daily treatment, end of treatment, Acuna-Castroviejo et al., 2006)	rearing behavior compared to vehicle controls (male Sprague-Dawley rats; [5])	immobility compared to controls (male Sprague-Dawley rats; [5])	rearing behavior compared to vehicle controls (male Sprague-Dawley rats; [6])	immobility compared to controls (male Sprague-Dawley rats; [6])	sedative effect: quadrant crossings (male Sprague-Dawley rats; [7])	sedative effect: total mobility (male Sprague-Dawley rats; [7])	reduction in damaged cortical tissue compared to vehicle-treated TBI rats (TBI rats) [%]	nitrite production ([4]; P<0.01, FIG. 4)	increase in PGE2 levels ([4]; P<0.01, FIG. 5)	reduction in brain infarct size compared to vehicle-treated IHI mice (IHI mice)	binding to melatonin receptors (melatonin receptors)	side effects compared to placebo treatment (humans)
COc1ccc2[nH]cc(CCNC(C)=O)c2c1 [melatonin]	significantly decreased	significantly decreased	significant decrease	significant decrease	decrease	Significant improvement	significant improvement	–	–	–	–	–	–	–	–	–	–	–	–
COc1cc2c([C@@H](C)CNC(C)=O)c[nH]c2cc1Cl [β-methyl-6-chloromelatonin, (R)-N-[2-(6-chloro-5-methoxy-1H-indol-3-yl)propyl]acetamide]	–	–	–	–	–	–	–	significantly increased	significantly decreased	significantly increased	significantly decreased	no significant drug effect	no significant drug effect	68	blocked	blocked	33-40%	high affinity	no significant side effects
